Source: paper doi:10.1101/2024.08.19.608619, “Discovery of potent SARS-CoV-2 nsp3 macrodomain inhibitors uncovers lack of translation to cellular antiviral response” (bioRxiv, 2024)
Where “and” joins values, the source holds several entries; their conditions need not be identical. Identical values can stand only once.

Legend:
CDK7/cyclinH/MAT1(h) = CDK7/cyclinH/MAT1(h) (Homo sapiens, UniProt P50613); assay: biochemical; parameters: In vitro kinase panel profiling, per cent remaining kinase activity at 10 uM; details: batch_name=ASAP-0011176-002; atp_concentration=90; read-out: % of control remaining
From the text: (§1) We derisk potential for off-target activity by profiling the compound in a CEREP panel, a standard secondary pharmacology assessment, as well as a kinase panel to derisk a potential hinge-binding motif in our leads, and a PARP panel to derisk activity against human […]. Reassuringly, the compounds are selective, with the only off-targets being moderate human CHRM2 and KOR receptors activity associated with ASAP-0011198.

CDK9/cyclin T1(h) = CDK9/cyclin T1(h) (Homo sapiens, UniProt P50750); assay: biochemical; parameters: In vitro kinase panel profiling, per cent remaining kinase activity at 10 uM; details: batch_name=ASAP-0011176-002; atp_concentration=45; read-out: % of control remaining
From the text: as §1

CHK1(h) = target: T1, CHK1(h) (Homo sapiens, UniProt O14757); assay: biochemical; parameters: In vitro kinase panel profiling, per cent remaining kinase activity at 10 uM; details: batch_name=ASAP-0011176-002; atp_concentration=90; read-out: % of control remaining
T1 construct: gene CHEK1
T1 sequence (O14757 1-476): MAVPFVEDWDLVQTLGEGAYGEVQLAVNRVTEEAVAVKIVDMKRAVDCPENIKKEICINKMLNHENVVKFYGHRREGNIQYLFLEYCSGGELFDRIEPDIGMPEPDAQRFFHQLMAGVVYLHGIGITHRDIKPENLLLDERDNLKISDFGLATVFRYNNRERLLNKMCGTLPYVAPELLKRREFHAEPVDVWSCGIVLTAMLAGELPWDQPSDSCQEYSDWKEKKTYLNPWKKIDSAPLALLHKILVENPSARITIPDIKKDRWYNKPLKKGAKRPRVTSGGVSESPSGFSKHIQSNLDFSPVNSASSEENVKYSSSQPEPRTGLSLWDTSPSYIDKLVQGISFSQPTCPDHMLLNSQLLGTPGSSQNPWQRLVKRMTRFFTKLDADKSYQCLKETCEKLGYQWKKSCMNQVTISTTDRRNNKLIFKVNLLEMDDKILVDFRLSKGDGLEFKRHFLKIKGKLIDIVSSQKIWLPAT
From the text: as §1

CK1γ1(h) = target: T2, CK1γ1(h) (Homo sapiens, UniProt Q9HCP0); assay: biochemical; parameters: In vitro kinase panel profiling, per cent remaining kinase activity at 10 uM; details: batch_name=ASAP-0011176-002; atp_concentration=15; read-out: % of control remaining
T2 construct: gene CSNK1G1
From the text: as §1

CK2α2(h) = target: T3, CK2α2(h) (Homo sapiens, UniProt P19784); assay: biochemical; parameters: In vitro kinase panel profiling, per cent remaining kinase activity at 10 uM; details: batch_name=ASAP-0011176-002; atp_concentration=10; read-out: % of control remaining
T3 construct: gene CSNK2A2
From the text: as §1

CaMKI(h) = target: T4, CaMKI(h) (Homo sapiens, UniProt Q14012); assay: biochemical; parameters: In vitro kinase panel profiling, per cent remaining kinase activity at 10 uM; details: batch_name=ASAP-0011176-002; atp_concentration=200; read-out: % of control remaining
T4 construct: gene CAMK1
From the text: as §1

EGFR(h) = EGFR(h) (Homo sapiens, UniProt P00533); assay: biochemical; parameters: In vitro kinase panel profiling, per cent remaining kinase activity at 10 uM; details: batch_name=ASAP-0011176-002; atp_concentration=10; read-out: % of control remaining
EGFR(h), sequence (P00533 whole entry): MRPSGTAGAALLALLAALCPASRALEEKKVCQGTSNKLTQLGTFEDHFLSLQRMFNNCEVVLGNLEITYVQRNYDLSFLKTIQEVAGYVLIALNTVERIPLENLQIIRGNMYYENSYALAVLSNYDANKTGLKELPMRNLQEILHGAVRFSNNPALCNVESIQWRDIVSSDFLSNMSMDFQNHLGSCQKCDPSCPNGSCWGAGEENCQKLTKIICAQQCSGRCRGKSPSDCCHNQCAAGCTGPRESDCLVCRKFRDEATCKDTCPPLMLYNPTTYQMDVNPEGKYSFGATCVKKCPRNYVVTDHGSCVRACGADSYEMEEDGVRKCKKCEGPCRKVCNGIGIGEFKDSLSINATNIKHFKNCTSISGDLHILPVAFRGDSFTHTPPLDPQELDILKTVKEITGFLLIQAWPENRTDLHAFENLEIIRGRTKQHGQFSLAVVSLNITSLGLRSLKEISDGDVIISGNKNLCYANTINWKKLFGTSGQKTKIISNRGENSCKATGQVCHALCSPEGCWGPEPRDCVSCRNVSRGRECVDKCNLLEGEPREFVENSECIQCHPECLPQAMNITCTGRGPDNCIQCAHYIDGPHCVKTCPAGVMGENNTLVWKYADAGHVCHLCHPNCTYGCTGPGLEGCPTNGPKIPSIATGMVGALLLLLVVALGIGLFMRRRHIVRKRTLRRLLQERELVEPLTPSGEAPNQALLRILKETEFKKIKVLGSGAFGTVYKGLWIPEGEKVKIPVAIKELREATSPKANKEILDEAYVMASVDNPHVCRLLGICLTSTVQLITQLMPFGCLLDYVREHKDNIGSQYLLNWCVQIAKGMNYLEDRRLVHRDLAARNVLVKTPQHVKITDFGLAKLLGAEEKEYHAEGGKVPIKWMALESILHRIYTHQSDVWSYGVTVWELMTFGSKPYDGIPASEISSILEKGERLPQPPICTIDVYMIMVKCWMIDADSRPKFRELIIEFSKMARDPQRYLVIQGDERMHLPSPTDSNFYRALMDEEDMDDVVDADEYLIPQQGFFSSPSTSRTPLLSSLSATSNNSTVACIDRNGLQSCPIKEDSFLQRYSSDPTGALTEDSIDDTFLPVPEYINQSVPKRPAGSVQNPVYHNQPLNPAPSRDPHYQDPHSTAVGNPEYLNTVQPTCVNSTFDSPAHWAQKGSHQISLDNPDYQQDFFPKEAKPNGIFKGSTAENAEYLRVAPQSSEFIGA
From the text: as §1

EphA5(h) = EphA5(h) (Homo sapiens, UniProt P54756); assay: biochemical; parameters: In vitro kinase panel profiling, per cent remaining kinase activity at 10 uM; details: batch_name=ASAP-0011176-002; atp_concentration=10; read-out: % of control remaining
From the text: as §1

Fyn(h) = Fyn(h) (Homo sapiens, UniProt P06241); assay: biochemical; parameters: In vitro kinase panel profiling, per cent remaining kinase activity at 10 uM; details: batch_name=ASAP-0011176-002; atp_concentration=70; read-out: % of control remaining
From the text: as §1

IGF-1R(h) = target: T5, IGF-1R(h) (Homo sapiens, UniProt P08069); assay: biochemical; parameters: In vitro kinase panel profiling, per cent remaining kinase activity at 10 uM; details: batch_name=ASAP-0011176-002; atp_concentration=200; read-out: % of control remaining
T5 construct: gene IGF1R
From the text: as §1

KDR(h) = KDR(h) (Homo sapiens, UniProt P35968); assay: biochemical; parameters: In vitro kinase panel profiling, per cent remaining kinase activity at 10 uM; details: batch_name=ASAP-0011176-002; atp_concentration=90; read-out: % of control remaining
From the text: as §1

MLK1(h) = target: T6, MLK1(h) (Homo sapiens, UniProt P80192); assay: biochemical; parameters: In vitro kinase panel profiling, per cent remaining kinase activity at 10 uM; details: batch_name=ASAP-0011176-002; atp_concentration=45; read-out: % of control remaining
T6 construct: gene MAP3K9
T6 sequence (P80192 whole entry): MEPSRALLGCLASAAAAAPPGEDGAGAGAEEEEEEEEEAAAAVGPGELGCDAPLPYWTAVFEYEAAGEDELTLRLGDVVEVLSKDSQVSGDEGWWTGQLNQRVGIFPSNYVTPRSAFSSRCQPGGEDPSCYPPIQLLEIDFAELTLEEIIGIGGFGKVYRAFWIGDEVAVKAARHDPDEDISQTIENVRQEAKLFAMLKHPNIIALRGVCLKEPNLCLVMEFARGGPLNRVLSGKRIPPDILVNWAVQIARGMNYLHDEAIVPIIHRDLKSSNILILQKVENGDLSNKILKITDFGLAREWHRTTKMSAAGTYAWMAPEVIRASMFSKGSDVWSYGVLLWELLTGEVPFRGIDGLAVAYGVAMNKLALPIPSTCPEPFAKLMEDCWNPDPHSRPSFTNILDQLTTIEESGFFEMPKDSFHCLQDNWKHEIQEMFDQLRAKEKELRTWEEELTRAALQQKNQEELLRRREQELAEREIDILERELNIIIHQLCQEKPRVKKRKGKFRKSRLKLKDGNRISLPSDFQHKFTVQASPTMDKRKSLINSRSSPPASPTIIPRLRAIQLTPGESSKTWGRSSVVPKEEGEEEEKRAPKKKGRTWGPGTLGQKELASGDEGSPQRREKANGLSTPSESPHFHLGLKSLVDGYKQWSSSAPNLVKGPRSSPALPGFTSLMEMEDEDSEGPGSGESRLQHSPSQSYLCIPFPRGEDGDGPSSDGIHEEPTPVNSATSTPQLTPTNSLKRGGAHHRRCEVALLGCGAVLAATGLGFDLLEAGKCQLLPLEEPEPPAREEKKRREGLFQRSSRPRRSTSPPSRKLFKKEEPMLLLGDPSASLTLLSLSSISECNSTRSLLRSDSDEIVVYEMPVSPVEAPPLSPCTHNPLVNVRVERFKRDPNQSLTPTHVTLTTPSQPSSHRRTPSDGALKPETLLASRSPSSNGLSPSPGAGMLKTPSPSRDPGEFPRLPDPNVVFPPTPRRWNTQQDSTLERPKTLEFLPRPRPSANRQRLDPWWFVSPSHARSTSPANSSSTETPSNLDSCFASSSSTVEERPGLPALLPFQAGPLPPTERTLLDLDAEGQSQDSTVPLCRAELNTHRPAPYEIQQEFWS
From the text: as §1

PAK2(h) = PAK2(h) (Homo sapiens, UniProt Q13177); assay: biochemical; parameters: In vitro kinase panel profiling, per cent remaining kinase activity at 10 uM; details: batch_name=ASAP-0011176-002; atp_concentration=90; read-out: % of control remaining
PAK2(h), sequence (Q13177 whole entry): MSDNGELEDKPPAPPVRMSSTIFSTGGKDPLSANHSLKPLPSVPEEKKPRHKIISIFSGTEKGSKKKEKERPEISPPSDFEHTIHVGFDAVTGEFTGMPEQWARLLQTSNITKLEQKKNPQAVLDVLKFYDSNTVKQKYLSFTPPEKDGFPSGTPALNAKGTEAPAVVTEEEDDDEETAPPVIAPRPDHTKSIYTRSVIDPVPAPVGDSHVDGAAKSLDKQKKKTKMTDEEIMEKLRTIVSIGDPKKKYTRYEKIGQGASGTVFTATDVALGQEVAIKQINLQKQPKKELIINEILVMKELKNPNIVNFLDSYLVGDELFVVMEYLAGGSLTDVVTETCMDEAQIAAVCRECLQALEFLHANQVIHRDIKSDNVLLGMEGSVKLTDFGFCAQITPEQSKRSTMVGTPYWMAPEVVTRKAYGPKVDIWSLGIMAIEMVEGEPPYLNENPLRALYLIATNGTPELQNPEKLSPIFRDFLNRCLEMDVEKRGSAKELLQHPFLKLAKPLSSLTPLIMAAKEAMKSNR
From the text: as §1

PI3 Kinase (p120γ)(h) = target: T7, PI3 Kinase (p120γ)(h) (Homo sapiens, UniProt P48736); assay: biochemical; parameters: In vitro kinase panel profiling, per cent remaining kinase activity at 10 uM; details: batch_name=ASAP-0011176-002; atp_concentration=100; read-out: % of control remaining
T7 construct: gene PIK3CG
From the text: as §1

ROCK-I(h) = target: T8, ROCK-I(h) (Homo sapiens, UniProt Q13464); assay: biochemical; parameters: In vitro kinase panel profiling, per cent remaining kinase activity at 10 uM; details: batch_name=ASAP-0011176-002; atp_concentration=70; read-out: % of control remaining
T8 construct: gene ROCK1
T8 sequence (Q13464 whole entry): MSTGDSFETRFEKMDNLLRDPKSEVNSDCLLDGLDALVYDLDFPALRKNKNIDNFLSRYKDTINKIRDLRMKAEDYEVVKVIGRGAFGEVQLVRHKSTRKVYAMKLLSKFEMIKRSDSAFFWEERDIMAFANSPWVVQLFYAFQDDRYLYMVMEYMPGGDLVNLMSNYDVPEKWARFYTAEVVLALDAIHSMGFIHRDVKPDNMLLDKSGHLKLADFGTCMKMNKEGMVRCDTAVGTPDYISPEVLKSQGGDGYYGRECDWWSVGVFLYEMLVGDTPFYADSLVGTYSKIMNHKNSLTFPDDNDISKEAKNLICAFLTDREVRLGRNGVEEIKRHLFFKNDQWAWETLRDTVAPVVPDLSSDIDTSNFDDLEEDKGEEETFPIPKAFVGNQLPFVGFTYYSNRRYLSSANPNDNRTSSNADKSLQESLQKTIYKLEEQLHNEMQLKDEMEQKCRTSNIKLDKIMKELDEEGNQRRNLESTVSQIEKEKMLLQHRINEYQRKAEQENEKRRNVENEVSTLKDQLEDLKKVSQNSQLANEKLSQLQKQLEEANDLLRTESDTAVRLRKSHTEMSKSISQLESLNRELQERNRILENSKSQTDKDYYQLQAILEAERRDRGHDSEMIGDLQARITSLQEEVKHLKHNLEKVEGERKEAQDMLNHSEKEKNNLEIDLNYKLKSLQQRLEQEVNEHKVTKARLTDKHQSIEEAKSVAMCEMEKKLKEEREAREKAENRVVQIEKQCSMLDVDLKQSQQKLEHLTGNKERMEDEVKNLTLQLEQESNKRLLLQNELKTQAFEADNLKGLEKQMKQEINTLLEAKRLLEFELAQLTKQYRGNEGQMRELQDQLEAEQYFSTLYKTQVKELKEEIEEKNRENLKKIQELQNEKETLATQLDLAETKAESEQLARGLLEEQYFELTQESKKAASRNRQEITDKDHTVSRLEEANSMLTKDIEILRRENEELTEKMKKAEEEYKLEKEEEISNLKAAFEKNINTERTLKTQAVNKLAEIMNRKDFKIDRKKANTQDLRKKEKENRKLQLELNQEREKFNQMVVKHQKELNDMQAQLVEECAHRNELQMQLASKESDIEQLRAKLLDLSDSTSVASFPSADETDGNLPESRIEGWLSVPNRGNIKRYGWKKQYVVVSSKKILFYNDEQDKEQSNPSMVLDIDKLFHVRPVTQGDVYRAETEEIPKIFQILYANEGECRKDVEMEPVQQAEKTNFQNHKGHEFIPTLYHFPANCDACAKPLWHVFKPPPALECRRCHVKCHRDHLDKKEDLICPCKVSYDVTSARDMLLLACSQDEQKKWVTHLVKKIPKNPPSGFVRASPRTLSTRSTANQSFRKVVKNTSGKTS
From the text: as §1

c-RAF(h) = target: T9, c-RAF(h) (Homo sapiens, UniProt P04049); assay: biochemical; parameters: In vitro kinase panel profiling, per cent remaining kinase activity at 10 uM; details: batch_name=ASAP-0011176-002; atp_concentration=120; read-out: % of control remaining
T9 construct: gene RAF1
T9 sequence (P04049 whole entry): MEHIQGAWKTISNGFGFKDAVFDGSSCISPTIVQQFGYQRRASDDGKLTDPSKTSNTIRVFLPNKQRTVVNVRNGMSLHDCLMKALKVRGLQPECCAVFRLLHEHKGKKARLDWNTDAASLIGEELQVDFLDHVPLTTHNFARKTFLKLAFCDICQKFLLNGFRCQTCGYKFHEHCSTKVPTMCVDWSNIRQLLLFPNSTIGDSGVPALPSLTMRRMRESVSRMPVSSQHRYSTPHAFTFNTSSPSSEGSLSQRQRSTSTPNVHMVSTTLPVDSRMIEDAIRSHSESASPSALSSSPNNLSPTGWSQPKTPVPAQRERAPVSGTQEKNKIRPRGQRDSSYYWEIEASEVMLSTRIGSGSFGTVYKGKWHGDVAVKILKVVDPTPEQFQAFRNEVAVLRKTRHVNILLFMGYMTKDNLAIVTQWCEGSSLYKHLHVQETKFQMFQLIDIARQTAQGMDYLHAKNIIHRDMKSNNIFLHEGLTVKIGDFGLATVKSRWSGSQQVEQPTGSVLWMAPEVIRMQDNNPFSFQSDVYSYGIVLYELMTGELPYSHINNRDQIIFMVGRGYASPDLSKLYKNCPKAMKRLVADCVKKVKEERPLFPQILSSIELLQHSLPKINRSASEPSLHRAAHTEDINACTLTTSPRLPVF
From the text: as §1

mTOR(h) = mTOR(h) (Homo sapiens, UniProt P42345); assay: biochemical; parameters: In vitro kinase panel profiling, per cent remaining kinase activity at 10 uM; details: batch_name=ASAP-0011176-002; atp_concentration=70; read-out: % of control remaining
From the text: as §1

[1] = Permeability Papp (AB) MDR1/MDCKII; details: for papp_a_to_b_mean: A to B; for perc_recovery_a_to_b_mean / perc_recovery_a_to_b_inhibitor_mean: recovery A to B; for perc_recovery_a_to_b_inhibitor_mean / perc_recovery_b_to_a_inhibitor_mean: MDR1-MDCKII
[2] = In vitro MDR1-MDCKII permeability, mean
[3] = In vitro MDR1-MDCKII permeability, no inhibitor

Which results are given for `CNCc1cc(-c2cc3c(N[C@@H](c4ccc5c(c4)S(=O)(=O)CCC5)C(C)C)ncnc3[nH]2)co1` [ASAP-0011176]?
remaining activity at 10 µM (CDK7/cyclinH/MAT1(h)): 100%; remaining activity at 10 µM (CDK9/cyclin T1(h)): 40%; remaining activity at 10 µM (CHK1(h)): 111%; remaining activity at 10 µM (CK1γ1(h)): 99%; remaining activity at 10 µM (CK2α2(h)): 90%; remaining activity at 10 µM (CaMKI(h)): 87%; remaining activity at 10 µM (EGFR(h)): 97%; remaining activity at 10 µM (EphA5(h)): 78%; remaining activity at 10 µM (Fyn(h)): 64%; remaining activity at 10 µM (IGF-1R(h)): 99%; remaining activity at 10 µM (KDR(h)): 88%; remaining activity at 10 µM (MLK1(h)): 86%; remaining activity at 10 µM (PAK2(h)): 94%; remaining activity at 10 µM (PI3 Kinase (p120γ)(h)): 96%; remaining activity at 10 µM (ROCK-I(h)): 102%; remaining activity at 10 µM (c-RAF(h)): 100%; remaining activity at 10 µM (mTOR(h)): 105%; papp_a_to_b_mean [1, 2]: 2.61 ×10⁻⁶ cm/s; papp_a_to_b_mean [1, 3]: 0.0775 ×10⁻⁶ cm/s and 0.0947 ×10⁻⁶ cm/s; papp_b_to_a_mean ([1]; In vitro MDR1-MDCKII permeability, B to A, no inhibitor): 0.15 ×10⁻⁶ cm/s and 0.137 ×10⁻⁶ cm/s; perc_recovery_a_to_b_mean [1, 2]: 78.9%; perc_recovery_a_to_b_mean [1, 3]: 64.8% and 63.4%; perc_recovery_b_to_a_mean ([1]; In vitro MDR1-MDCKII permeability, recovery B to A, no inhibitor): 60.4% and 68.7%; perc_recovery_a_to_b_inhibitor_mean ([1]; with inhibitor Cyclosporin A): 78.6%; perc_recovery_a_to_b_inhibitor_mean ([1]; with inhibitor Verapamil): 67.3%; perc_recovery_b_to_a_inhibitor_mean ([1]; recovery B to A, with inhibitor Cyclosporin A): 83.0%; perc_recovery_b_to_a_inhibitor_mean ([1]; recovery B to A, with inhibitor Verapamil): 62.0%
